The numbers were not newly measured in patent publication US20220257490A1, “METHOD FOR DYEING KERATINOUS MATERIAL, COMPRISING THE USE OF AN ORGANOSILICON COMPOUND, A COLORED EFFECT PIGMENT AND A FILM-FORMING POLYMER IV” (Henkel AG & Co. KGaA, priority 2019, published 2022), which cites them from elsewhere.

For this series the following is noted: 25° C.

For `O=S(=O)([O-])c1ccc(N=Nc2c(O)ccc3ccccc23)cc1.[Na+]` [Acid Orange 7, sodium salt of 4-[(2-hydroxy-1-naphthyl)azo]benzene sulphonate], the solubility in water entry is recorded as “more than 7 g/L”.

On to `Nc1cc(S(=O)(=O)[O-])cc2cc(S(=O)(=O)[O-])c(N=Nc3ccccc3)c(O)c12.[Na+].[Na+]` [Acid Red 33, disodium salt of 5-amino-4-hydroxy-3-(phenylazo)-naphthalene-2,7-disulphonate], for which the solubility in water is 2500 µg/mL.

`O=C([O-])c1c(Cl)c(Cl)c(Cl)c(Cl)c1-c1c2c(Br)cc(=O)c(Br)c-2oc2c(Br)c(O)cc(Br)c12.O=C([O-])c1c(Cl)c(Cl)c(Cl)c(Cl)c1-c1c2c(Br)cc(=O)c(Br)c-2oc2c(Br)c(O)cc(Br)c12.[Na+].[Na+]` [Acid Red 92, disodium salt of 3,4,5,6-tetrachloro-2-(1,4,5,8-tetrabromo-6-hydroxy-3-oxoxanthen-9-yl)benzoic acid]: the solubility in water entry is given as “greater than 10 g/L”.

As to `O=C([O-])C1=NN(c2ccc(S(=O)(=O)[O-])cc2)C(=O)C1N=Nc1ccc(S(=O)(=O)[O-])cc1.[Na+].[Na+].[Na+]` (stereo not shown) [Acid Yellow 23, trisodium salt of 4,5-dihydro-5-oxo-1-(4-sulfophenyl)-4-((4-sulfophenyl)azo)-1H-pyrazole-3-carboxylic acid], the “solubility in water (in words)” value was “highly soluble in water”.
